What all share (type): cell-based
Test [1] has as its system human TLR7. The test is described as follows: TLR7 cellular NFκB-luc reporter assay in transiently transfected HEK293 cells. As to conditions: Table IIC, lowest effective concentration, 6 hours incubation. The procedure: (§1) The ability of compounds to activate human TLR7 and/or TLR8 was assessed in a cellular reporter assay using HEK293 cells transiently transfected with a TLR7 or TLR8 expression vector and NFκB-luc reporter construct. In one instance the TLR expression construct expresses the respective wild type sequence or a mutant sequence comprising a deletion in the second leucine-rich repeat of the TLR.
(§2) Briefly, HEK293 cells were grown in culture medium (DMEM supplemented with 10% FCS and 2 mM Glutamine). For transfection of cells in 10 cm dishes, cells were detached with Trypsin-EDTA, transfected with a mix of CMV-TLR7 or TLR8 plasmid (750 ng), NFκB-luc plasmid (375 ng) and a transfection reagent and incubated overnight at 37° C. in a humidified 5% CO2 atmosphere. Transfected cells were then detached with Trypsin-EDTA, washed in PBS and resuspended in medium to a density of 1.67×10^5 cells/mL. Thirty microliters of cells were then dispensed into each well in 384-well plates, where 10 μL of compound in 4% DMSO was already present. Following 6 hours incubation at 37° C., 5% CO2, the luciferase activity was determined by adding 15 μl of Steady Lite Plus substrate (Perkin Elmer) to each well and readout performed on a ViewLux ultraHTS microplate imager (Perkin Elmer). Dose response curves were generated from measurements performed in quadruplicates. Lowest effective concentrations (LEC) values, defined as the concentration that induces an effect which is at least two fold above the standard deviation of the assay, were determined for each compound.

For test [2], the system named is human TLR8. The test is described as follows: TLR8 cellular NFκB-luc reporter assay in transiently transfected HEK293 cells. The conditions noted are these: Table IIC, lowest effective concentration, 6 hours incubation. The procedure: as §1, §2
Test [3] deals with PBMC-IFNa. The test is described as follows: PBMC-IFNa. The conditions noted are these: Table IIC; lowest effective concentration; read-out: PBMC-IFNa (LEC).

Turning to `CCCC[C@@H](CCO)Nc1nc(N)nc2c1CN(C(=O)c1cccs1)CC2` [Compound 45], in test [1], the “Human TLR7 (LEC, μM)” value turned out to be 0.2 µM. In addition, the “Human TLR8 (LEC, μM)” value in test [2] stood at 1.7 µM. Also, the minimal effective concentration in test [3] turned out to be 0.2 µM.

As to `CCCC[C@@H](CCO)Nc1nc(N)nc2c1CN(C(=O)c1cscn1)CC2` [Compound 46], in test [1], the “Human TLR7 (LEC, μM)” value was determined as 0.6 µM. The “Human TLR8 (LEC, μM)” value in test [2] turned out to be 3.5 µM. For the same compound, the minimal effective concentration in test [3] turned out to be 0.2 µM.

As to `CCC[C@@H](CCO)Nc1nc(N)nc2c1CN(C(=O)c1cccs1)CC2` [Compound 47], the “Human TLR7 (LEC, μM)” value in test [1] stood at 0.2 µM. The “Human TLR8 (LEC, μM)” value in test [2] is 1.1 µM. The minimal effective concentration in test [3] was found to be 0.2 µM.

In the case of `CCCC[C@@H](CCO)Nc1nc(N)nc2c1CN(C(=O)c1ccccc1)CC2` [Compound 48], in test [1], the “Human TLR7 (LEC, μM)” value is 1.2 µM. Moreover, the “Human TLR8 (LEC, μM)” value in test [2] is 3.9 µM. For the same compound, in test [3], the minimal effective concentration was 0.3 µM.

On to `CCC[C@@H](CCO)Nc1nc(N)nc2c1CCN(C(=O)c1cccn1C)C2` [Compound 49], for which, in test [1], the “Human TLR7 (LEC, μM)” value came to 2.7 µM. Further, the “Human TLR8 (LEC, μM)” value in test [2] is 4.0 µM. For the same compound, in test [3], the minimal effective concentration worked out at 0.3 µM.

`CCCC[C@@H](CCO)Nc1nc(N)nc2c1CCN(C(=O)c1cccn1C)C2` [Compound 50]: the “Human TLR7 (LEC, μM)” value in test [1] turned out to be 1.7 µM. In test [2], the “Human TLR8 (LEC, μM)” value was 3.9 µM. Moreover, in test [3], the minimal effective concentration was found to be 0.3 µM.

As for `CCCC[C@@H](CCO)Nc1nc(N)nc2c1CN(C(=O)c1cccn1C)CC2` [Compound 51], the “Human TLR7 (LEC, μM)” value in test [1] turned out to be 0.5 µM. For the same compound, the “Human TLR8 (LEC, μM)” value in test [2] worked out at 0.4 µM. In addition, the minimal effective concentration in test [3] was 0.1 µM.

Source of the values: US9365571B2, “Piperidino-pyrimidine derivatives for the treatment of viral infections” (Janssen Sciences Ireland UC, priority 2012, dated 2016).
